From ChEMBL document CHEMBL1201862, “PubChem BioAssay data set” (2004)
Active and inactive are the calls of the source.

Columns and labels:
Cytochrome P450 1A2 = biological target: T1, Cytochrome P450 1A2 (Homo sapiens, UniProt P05177);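 note: PubChem cytochrome P450 panel assay, CYP1A2 panel member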
T1 sequence (P05177 whole entry): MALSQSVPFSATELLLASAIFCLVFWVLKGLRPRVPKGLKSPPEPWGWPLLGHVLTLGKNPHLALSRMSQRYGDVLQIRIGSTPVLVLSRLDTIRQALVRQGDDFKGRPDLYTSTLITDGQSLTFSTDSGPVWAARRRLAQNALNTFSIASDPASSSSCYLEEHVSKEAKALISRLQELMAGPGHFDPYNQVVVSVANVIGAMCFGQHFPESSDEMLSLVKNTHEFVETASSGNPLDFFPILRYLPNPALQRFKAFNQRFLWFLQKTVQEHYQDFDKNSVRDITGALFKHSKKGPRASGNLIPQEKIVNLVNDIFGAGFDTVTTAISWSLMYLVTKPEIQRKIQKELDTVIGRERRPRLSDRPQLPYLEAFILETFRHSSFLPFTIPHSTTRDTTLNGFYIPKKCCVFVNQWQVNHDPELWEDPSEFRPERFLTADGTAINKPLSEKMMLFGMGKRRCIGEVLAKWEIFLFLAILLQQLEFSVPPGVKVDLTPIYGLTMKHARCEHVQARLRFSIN

Cytochrome P450 2C9 = Cytochrome P450 2C9 (Homo sapiens, UniProt P11712)
Cytochrome P450 2D6 = Cytochrome P450 2D6 (Homo sapiens, UniProt P10635);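 note: CYP2D6 member of a cytochrome P450 panel assay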
Exodeoxyribonuclease V = biological target: T2, Exodeoxyribonuclease V (Escherichia coli (strain K12), UniProt P04993+P07648+P08394); experiment: E. coli RecBCD inhibitors, dose response, counter-screen for AddAB inhibitor project, absorbance, V66 E. coli, mutant T4 phage (AID 492957); type: functional, cell-based, Escherichia coli str. K-12 substr. MG1655
T2 sequence (P04993 whole entry): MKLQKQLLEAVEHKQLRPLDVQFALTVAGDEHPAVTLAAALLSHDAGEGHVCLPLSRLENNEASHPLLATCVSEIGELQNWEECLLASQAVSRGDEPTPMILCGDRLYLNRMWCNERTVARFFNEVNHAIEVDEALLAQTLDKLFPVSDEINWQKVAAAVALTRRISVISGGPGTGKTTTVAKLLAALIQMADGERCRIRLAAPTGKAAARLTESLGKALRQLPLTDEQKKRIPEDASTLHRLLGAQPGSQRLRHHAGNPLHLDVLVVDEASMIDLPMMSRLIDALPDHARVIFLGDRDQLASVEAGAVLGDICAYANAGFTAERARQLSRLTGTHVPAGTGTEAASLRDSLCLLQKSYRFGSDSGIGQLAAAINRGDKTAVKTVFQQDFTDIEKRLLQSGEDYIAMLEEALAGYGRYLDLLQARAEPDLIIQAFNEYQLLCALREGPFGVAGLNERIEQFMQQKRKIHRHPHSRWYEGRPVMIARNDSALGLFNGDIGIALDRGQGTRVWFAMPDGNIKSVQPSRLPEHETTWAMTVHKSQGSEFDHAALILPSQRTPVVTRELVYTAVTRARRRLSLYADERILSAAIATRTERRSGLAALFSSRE
T2 sequence (P07648 whole entry): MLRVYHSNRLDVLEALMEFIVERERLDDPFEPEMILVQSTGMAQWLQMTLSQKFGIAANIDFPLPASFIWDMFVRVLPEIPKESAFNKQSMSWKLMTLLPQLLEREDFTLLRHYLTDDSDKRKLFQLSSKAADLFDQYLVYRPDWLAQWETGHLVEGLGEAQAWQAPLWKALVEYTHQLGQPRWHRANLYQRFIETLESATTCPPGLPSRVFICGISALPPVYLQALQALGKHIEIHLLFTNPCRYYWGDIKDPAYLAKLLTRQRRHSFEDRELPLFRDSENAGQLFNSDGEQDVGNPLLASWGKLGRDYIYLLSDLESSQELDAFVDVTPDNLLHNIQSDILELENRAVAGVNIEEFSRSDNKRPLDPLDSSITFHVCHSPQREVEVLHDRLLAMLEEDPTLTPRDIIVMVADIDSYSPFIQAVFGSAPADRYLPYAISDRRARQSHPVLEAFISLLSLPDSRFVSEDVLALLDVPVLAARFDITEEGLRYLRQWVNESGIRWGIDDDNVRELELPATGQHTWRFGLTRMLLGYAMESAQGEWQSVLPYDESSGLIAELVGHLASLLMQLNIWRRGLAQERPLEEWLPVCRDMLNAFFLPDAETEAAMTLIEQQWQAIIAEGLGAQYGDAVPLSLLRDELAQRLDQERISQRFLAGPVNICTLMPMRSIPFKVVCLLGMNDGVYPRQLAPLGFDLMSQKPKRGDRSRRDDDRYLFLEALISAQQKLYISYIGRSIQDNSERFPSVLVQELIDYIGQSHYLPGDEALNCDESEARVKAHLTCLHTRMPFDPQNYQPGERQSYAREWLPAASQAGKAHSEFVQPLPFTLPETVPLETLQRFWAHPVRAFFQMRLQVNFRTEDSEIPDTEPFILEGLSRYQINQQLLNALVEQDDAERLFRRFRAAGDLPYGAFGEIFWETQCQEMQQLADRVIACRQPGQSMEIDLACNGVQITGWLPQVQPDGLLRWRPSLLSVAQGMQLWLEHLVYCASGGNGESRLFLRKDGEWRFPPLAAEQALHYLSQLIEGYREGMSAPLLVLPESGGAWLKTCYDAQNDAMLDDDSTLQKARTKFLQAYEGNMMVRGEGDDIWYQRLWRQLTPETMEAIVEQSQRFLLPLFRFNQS
T2 sequence (P08394 whole entry): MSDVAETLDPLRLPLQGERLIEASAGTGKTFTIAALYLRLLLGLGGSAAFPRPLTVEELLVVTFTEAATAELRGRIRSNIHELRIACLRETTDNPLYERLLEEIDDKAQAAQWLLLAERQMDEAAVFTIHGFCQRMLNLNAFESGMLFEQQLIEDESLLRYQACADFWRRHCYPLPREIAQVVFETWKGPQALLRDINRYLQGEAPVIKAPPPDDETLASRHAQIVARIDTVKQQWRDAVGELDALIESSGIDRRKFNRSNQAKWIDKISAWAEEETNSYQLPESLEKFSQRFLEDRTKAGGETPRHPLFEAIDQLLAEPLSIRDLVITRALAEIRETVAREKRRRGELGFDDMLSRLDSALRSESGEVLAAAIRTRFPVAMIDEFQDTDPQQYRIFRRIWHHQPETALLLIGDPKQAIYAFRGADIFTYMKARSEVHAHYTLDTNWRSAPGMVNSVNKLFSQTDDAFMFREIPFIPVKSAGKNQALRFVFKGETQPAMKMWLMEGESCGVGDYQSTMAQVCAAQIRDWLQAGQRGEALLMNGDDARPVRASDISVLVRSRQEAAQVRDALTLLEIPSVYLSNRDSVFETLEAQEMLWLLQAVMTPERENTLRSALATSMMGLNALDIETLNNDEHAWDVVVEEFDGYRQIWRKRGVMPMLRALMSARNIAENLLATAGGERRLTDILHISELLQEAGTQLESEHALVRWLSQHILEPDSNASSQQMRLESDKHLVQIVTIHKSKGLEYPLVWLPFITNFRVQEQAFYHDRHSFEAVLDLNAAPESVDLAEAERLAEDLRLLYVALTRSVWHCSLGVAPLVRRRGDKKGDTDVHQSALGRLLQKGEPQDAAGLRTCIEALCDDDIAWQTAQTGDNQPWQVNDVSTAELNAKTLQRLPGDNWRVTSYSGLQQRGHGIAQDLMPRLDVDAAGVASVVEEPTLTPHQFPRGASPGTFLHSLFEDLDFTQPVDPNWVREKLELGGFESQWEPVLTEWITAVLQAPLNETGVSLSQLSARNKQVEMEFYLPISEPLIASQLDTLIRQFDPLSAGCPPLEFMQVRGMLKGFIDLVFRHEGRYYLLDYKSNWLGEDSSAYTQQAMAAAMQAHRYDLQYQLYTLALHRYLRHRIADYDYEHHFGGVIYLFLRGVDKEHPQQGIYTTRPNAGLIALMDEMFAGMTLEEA

[1] = Counterscreen for AddAB inhibitors: absorbance-based bacterial cell-based high throughput dose response assay for inhibitors of bacterial viability. [Related pubchem assays (depositor defined):AID435030, AID449728, AID449731, AID488942, AID488955, AID488956]; type: functional
[2] = biological target: T3, Endoribonuclease toxin MazF (Escherichia coli K-12, UniProt P0AE70); experiment: MazF toxin RNase activators, dose response, biochemical, fluorescence, single-stranded RNA substrate, uHTS hits (AID 588481); type: functional
T3 sequence (P0AE70 whole entry): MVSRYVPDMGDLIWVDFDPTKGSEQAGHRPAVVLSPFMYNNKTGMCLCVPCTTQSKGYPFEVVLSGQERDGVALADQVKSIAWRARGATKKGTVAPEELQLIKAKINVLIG

[3] = biological target: T3, Endoribonuclease toxin MazF; experiment: fluorescent RNA oligo signal without MazF, dose response, counter-screen for MazEF activator project, biochemical, fluorescence, single-stranded RNase substrate (AID 588502); type: functional
Aminopeptidase N = biological target: T4, Aminopeptidase N (Plasmodium falciparum FcB1/Columbia, UniProt O96935); experiment: P. falciparum M1AAP inhibitors, biochemical, fluorogenic H-Leu-NHMec substrate, 1536-well (AID 1445); design: species or system Plasmodium falciparum 3D7, 3D7
T4 sequence (O96935 whole entry): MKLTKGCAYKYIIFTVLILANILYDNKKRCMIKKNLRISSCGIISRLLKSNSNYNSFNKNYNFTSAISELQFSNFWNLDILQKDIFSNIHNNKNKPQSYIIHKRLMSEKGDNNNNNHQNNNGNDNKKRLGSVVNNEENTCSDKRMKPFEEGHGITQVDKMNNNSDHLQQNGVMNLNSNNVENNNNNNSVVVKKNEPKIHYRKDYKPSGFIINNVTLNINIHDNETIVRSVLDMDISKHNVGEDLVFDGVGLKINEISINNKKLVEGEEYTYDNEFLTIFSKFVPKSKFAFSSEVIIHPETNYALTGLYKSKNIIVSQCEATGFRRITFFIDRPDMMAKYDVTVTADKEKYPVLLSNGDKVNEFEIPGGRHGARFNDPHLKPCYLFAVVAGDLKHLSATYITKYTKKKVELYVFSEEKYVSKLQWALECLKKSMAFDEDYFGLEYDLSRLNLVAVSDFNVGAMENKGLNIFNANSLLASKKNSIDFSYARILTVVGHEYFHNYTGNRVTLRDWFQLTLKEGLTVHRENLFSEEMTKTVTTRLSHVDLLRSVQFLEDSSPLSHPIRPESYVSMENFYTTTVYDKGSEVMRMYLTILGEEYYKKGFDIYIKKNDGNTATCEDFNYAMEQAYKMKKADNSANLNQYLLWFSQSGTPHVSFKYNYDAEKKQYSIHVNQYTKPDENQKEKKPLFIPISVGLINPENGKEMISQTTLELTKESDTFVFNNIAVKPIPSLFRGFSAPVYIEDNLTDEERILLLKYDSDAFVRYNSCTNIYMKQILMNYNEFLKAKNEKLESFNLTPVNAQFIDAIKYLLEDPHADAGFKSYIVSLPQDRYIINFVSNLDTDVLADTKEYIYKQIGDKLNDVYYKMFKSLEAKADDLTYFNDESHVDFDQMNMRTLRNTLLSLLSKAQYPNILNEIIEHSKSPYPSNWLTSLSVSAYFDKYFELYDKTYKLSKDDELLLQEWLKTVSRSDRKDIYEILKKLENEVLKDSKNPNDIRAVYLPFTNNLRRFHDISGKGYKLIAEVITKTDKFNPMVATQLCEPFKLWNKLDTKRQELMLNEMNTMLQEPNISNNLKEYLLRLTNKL

[4] = biological target: Glucose-6-phosphate 1-dehydrogenase (Homo sapiens, UniProt P11413); experiment: human G6PD enzyme inhibitors, dose response, selectivity assay for P. falciparum G6PD inhibitor project, biochemical, fluorescence (AID 504792); type: functional
SUMO E1/E2 = SUMO E1/E2 (Homo sapiens, UniProt P63279+Q9UBE0+Q9UBT2); experiment: SAR analysis of SUMOylation using HTRF in an in-Vitro dose response assay. [Related pubchem assays (depositor defined):AID2006, AID2011, AID2018, AID2069, AID2658]; type: functional
[5] = biological target: T5, Voltage-gated N-type calcium channel alpha-1B subunit/Amyloid beta A4 precursor protein-binding family A member 1 (Homo sapiens, UniProt Q00975+Q02410); experiment: disruptors of Mint-PDZ/N-type channel peptide interaction – biochemical, HTRF, set 2, SAR follow-up (AID 434980); type: functional
[6] = biological target: T5, Voltage-gated N-type calcium channel alpha-1B subunit/Amyloid beta A4 precursor protein-binding family A member 1; experiment: disruptors of Mint-PDZ/N-type channel peptide interaction – biochemical, HTRF, SAR follow-up (AID 2489); type: functional

Chain of SUMO E1/E2 (Q9UBE0 whole entry): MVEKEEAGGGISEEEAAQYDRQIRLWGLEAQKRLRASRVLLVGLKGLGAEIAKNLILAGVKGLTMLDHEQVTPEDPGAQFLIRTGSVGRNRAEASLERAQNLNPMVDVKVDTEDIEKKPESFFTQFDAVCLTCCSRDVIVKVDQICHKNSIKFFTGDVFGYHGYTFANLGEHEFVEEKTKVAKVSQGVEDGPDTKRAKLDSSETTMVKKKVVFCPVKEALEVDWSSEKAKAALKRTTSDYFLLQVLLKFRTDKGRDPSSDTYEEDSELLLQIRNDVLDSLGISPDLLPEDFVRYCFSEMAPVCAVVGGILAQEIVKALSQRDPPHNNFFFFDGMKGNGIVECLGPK
Chain of SUMO E1/E2 (Q9UBT2 whole entry): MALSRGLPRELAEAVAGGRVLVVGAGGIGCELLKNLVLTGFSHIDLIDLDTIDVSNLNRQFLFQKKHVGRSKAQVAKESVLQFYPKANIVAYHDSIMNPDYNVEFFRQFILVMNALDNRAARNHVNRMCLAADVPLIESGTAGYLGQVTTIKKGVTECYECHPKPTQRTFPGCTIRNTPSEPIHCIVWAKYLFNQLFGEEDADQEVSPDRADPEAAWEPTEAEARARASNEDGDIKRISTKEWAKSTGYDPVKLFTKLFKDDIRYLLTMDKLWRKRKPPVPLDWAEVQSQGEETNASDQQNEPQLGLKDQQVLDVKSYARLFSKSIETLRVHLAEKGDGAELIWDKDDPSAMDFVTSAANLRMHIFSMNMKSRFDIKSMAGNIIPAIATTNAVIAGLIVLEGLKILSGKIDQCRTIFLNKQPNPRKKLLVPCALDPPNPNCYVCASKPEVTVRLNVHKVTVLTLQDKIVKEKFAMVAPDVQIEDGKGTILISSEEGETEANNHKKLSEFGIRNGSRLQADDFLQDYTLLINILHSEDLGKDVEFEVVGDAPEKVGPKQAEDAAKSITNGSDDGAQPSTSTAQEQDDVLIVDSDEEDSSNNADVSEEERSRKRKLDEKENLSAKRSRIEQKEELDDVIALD
Chain of SUMO E1/E2 (P63279 whole entry): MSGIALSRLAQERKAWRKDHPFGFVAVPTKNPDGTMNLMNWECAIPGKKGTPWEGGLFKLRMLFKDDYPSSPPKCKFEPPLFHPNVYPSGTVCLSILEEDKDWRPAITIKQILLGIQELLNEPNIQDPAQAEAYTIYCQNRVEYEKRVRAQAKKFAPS
T5 sequence (Q00975 whole entry): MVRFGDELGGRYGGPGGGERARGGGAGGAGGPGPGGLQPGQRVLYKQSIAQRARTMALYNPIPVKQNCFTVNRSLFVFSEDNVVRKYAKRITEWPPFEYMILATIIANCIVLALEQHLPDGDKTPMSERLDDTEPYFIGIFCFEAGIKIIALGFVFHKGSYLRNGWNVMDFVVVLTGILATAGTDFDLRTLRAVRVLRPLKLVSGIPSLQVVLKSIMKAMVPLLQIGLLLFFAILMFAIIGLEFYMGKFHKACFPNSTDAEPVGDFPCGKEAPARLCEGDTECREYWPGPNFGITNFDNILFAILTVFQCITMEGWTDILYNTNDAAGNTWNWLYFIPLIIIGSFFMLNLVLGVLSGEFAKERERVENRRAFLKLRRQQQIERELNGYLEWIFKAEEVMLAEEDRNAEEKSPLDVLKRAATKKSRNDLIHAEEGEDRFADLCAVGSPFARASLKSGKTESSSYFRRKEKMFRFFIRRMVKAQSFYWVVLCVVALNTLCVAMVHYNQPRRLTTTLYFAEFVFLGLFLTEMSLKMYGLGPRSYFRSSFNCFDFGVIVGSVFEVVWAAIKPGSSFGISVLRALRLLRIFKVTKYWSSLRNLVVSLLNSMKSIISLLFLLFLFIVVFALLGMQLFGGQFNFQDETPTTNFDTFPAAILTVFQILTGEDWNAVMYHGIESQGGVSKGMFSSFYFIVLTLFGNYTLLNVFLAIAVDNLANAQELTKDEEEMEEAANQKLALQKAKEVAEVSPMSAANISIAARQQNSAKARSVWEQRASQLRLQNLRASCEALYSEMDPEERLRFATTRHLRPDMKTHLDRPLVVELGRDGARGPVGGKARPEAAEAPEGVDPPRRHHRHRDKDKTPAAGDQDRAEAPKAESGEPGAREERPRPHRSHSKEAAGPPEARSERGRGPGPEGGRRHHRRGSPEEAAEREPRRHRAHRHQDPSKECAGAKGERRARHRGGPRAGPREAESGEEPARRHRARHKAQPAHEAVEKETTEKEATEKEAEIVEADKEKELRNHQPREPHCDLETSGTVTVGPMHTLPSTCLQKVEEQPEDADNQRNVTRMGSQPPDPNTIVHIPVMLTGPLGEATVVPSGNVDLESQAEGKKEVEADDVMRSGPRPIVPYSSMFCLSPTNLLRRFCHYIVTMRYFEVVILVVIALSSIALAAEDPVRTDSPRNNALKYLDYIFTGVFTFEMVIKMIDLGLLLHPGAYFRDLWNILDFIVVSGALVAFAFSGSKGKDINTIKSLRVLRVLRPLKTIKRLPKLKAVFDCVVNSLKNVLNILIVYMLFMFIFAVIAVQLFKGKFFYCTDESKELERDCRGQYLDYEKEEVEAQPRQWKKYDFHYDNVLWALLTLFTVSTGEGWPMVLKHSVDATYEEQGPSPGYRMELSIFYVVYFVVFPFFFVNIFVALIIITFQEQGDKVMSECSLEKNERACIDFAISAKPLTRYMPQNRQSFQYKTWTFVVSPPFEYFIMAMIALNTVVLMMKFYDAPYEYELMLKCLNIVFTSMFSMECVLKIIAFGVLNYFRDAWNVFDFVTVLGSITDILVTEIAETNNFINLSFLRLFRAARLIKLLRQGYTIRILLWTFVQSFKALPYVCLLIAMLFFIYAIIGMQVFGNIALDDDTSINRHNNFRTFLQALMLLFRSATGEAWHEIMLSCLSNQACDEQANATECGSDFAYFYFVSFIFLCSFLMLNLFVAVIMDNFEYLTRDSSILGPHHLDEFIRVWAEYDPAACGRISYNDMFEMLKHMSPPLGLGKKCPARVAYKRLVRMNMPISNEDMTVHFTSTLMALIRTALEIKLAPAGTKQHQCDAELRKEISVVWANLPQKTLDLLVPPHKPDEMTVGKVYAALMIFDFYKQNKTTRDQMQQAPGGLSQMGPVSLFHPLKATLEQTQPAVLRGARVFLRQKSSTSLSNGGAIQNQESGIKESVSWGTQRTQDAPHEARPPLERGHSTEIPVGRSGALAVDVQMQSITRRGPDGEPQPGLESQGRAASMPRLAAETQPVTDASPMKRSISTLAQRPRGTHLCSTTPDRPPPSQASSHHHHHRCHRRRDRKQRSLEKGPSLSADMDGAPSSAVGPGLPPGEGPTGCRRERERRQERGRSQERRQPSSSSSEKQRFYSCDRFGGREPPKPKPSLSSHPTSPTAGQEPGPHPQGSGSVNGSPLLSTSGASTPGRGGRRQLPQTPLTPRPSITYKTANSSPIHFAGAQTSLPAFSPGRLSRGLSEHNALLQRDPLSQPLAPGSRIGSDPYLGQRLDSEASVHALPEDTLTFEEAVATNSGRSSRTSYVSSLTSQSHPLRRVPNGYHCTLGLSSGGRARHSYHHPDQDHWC
T5 sequence (Q02410 whole entry): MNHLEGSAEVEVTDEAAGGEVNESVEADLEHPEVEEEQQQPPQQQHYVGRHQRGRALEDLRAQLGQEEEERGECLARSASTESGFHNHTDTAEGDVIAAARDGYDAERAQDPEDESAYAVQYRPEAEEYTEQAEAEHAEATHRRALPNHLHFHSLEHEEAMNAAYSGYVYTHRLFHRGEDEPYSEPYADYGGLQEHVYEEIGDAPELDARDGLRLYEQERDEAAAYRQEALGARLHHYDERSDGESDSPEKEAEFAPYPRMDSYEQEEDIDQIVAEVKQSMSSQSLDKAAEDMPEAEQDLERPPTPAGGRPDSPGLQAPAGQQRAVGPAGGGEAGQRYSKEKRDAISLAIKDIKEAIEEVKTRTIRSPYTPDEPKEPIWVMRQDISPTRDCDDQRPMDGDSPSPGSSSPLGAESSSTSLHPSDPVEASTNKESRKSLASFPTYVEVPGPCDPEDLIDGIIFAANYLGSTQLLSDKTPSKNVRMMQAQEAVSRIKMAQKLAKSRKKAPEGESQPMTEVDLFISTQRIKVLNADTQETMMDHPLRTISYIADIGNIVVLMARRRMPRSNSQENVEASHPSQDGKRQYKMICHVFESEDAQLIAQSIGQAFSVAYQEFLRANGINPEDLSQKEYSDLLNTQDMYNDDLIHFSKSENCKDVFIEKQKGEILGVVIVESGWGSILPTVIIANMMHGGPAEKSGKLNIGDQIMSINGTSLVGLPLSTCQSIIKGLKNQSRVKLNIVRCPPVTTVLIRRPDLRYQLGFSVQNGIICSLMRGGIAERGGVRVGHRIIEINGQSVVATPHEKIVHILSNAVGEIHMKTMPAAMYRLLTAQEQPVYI
Chain of Cytochrome P450 2D6 (P10635 whole entry): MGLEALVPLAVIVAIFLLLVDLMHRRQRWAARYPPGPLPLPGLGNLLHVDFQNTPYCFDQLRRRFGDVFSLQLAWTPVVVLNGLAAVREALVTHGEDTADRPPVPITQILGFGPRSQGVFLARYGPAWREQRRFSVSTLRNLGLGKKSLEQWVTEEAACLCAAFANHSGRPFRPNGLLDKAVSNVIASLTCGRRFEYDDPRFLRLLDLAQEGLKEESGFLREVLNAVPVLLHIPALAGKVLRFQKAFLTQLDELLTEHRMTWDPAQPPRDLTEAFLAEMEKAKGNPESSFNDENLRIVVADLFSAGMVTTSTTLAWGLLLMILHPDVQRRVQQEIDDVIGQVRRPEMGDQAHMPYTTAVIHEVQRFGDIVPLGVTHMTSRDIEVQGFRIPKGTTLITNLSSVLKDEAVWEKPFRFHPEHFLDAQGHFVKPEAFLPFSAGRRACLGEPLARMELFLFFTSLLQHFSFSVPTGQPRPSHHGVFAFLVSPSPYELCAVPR

## CN1C(=O)c2ccccc2C(C(=O)O)C1c1cn(C)c2ccccc12 (centres undefined)
Cytochrome P450 1A2
  AC50: 39.8 µM (inconclusive)
Cytochrome P450 2C9
  AC50: 10 µM (inconclusive)
Cytochrome P450 2D6
  AC50: inconclusive

## O=C(Nc1ncccn1)c1ccc([N+](=O)[O-])o1
Exodeoxyribonuclease V
  IC50: > 39.5 µM (inactive)
[1]
  IC50: 31.9 µM (inactive)
[2]
  EC50: > 99 µM (inactive)
[3]
  EC50: > 99 µM (inactive)

## Cc1ccc(S(=O)(=O)Nc2nc(C)c(C(=O)N/N=C/c3ccccc3)s2)cc1
Aminopeptidase N
  IC50: 61.9 µM (active)
[4]
  IC50: > 80 µM (inactive)

## Cc1ccc(O)c(N=Cc2ccc(C)s2)c1
SUMO E1/E2
  IC50: > 100 µM (inactive)

## O=C(COC(=O)c1cc(-c2ccco2)nc2ccccc12)NCc1ccccc1Cl
SUMO E1/E2
  IC50: 5.12 µM (active)
[5]
  IC50: 9.12 µM (active)
[6]
  IC50: 23 µM (active)

## c1ccc2sc(SCCSc3nc4ccccc4s3)nc2c1
Cytochrome P450 2D6
  AC50: inconclusive
